Counter-ions that a name gives are not always drawn.
Tests used:
mutant line W20 = test: Test B postemergence cross resistance test; format: in vivo, soybean; settings: Glycine max, post-emergence
Text: (§1) In the second postemergence test, six true-breeding resistant mutant lines (W4, W17, W19, W20, W23, and W28) were compared to Williams 82 for cross resistance to a broad range of ALS inhibitors including eight sulfonylureas and three imidazolinones. Two seeds were planted in each 10 cm pot and allowed to grow to the second trifoliolate stage. Pots were not thinned back if both plants were at the proper stage. For each of 11 herbicides, two rates (Table VII) were selected based on previous data: the low rate was expected to cause significant injury (but not death) to Williams 82 and the high rate was expected to severely injure or kill Williams 82. All but a few line x rate treatments were replicated twice.
In both postemergence tests, plants were returned to the greenhouse after treatment and provided with ample light, moisture, and nutrients to support healthy plant growth. Two to three ratings per pot were recorded over a three-week period and averaged to obtain a single value for each pot For each herbicide, analysis of variance on injury ratings was performed separately. Fisher's least significant difference (LSD) was used to determine the significance of line mean differences at each herbicide rate using the 95% level of confidence.

mutant line W17 = test: Test B postemergence cross resistance test; format: in vivo, soybean; settings: Glycine max, post-emergence
Text: as §1
(§2) In both postemergence tests, plants were returned to the greenhouse after treatment and provided with ample light, moisture, and nutrients to support healthy plant growth. Two to three ratings per pot were recorded over a three-week period and averaged to obtain a single value for each pot For each herbicide, analysis of variance on injury ratings was performed separately. Fisher's least significant difference (LSD) was used to determine the significance of line mean differences at each herbicide rate using the 95% level of confidence. […]

mutant line W19 = test: Test B postemergence cross resistance test; format: in vivo, soybean; settings: Glycine max, post-emergence
Text: as §1, §2

Williams 82 [1] = test: Test B postemergence cross resistance test; format: in vivo, soybean; settings: Glycine max, post-emergence
Text: as §1, §2

mutant line W28 = test: Test B postemergence cross resistance test; format: in vivo, soybean; settings: Glycine max, post-emergence
Text: as §1, §2

mutant line W4 = test: Test B postemergence cross resistance test; format: in vivo, soybean; settings: Glycine max, post-emergence
Text: as §1, §2

mutant line W23 = test: Test B postemergence cross resistance test; format: in vivo, soybean; settings: Glycine max, post-emergence
Text: as §1, §2

ALS of W23-10 = test: In vitro ALS activity of leaf tissue in the presence of Compounds 8 and 9; format: biochemical, soybean; settings: W23-10, 10 ppm
Text: (§3) At approximately 1 month after transplantation, some of the selections appeared much healthier than others. For example, W4-4, W4-6, W6-1, W6-2, W6-4, W23-10, and W23-11 recovered very well from the seed soak treatment with Compound 8. These plants were suspected of having a higher level of ALS resistance to Compound 8 than did the parental material from which they were derived. The applicant was also interested to see if any of these selections were cross resistant to an imidazolinone herbicide such as Compound 9. To test this hypothesis, leaf tissue of the one-month-old M2 plants was sampled and assayed in vitro for ALS activity in the presence of Compound 8 and Compound 9. The ALS assay procedure was essentially identical to the previously described ALS assay except that the herbicide concentrations tested were 100 ppb Compound 8 and 10 ppm Compound 9. Williams and mutant W20 soybean plants were also assayed as control genotypes for comparison. Williams contains no genes conferring the ALS-based sulfonylurea resistance while W20 is homozygous for a single mutation conferring ALS-based sulfonylurea resistance.
(§4) Acetolactate synthase (ALS) was extracted from leaves of soybean plants growing vegetatively. The leaves were homogenized in 4 volumes of buffer containing 100 mM hepes (pH 7.5), 1 mM sodium pyruvate, 0.5 mM magnesium chloride, 0.5 mM thiamine pyrophosphate, […], 10% glycerol, 5% PVPP, and 0.2% mercaptoethanol. The homogenate was filtered through cheese cloth and centrifuged at 20,000 g for 20 min. ALS was precipitated from the supernatant with ammonium sulfate. The enzyme was collected between 20 and 60% saturation by centrifugation at 20,000 g for 20 min. The pellet was resuspended in buffer containing 100 mM Hepes, 1 mM sodium pyruvate, and 0.5 mM magnesium chloride, and desalted on PD-10 columns (Pharmacia) equilibrated with the same buffer. ALS assays were carried out in a final volume of 0.5 mL at 30° C. The final reaction mixture contained 100 mM Hepes (pH 7.5), 1 mM magnesium chloride, 60 mM sodium pyruvate, 0.4 mM thiaminepyrophosphate, […], and various concentrations of chlorsulfuron. The assays were initiated with the addition of enzyme ([…]) and terminated with the addition of […] of 6N sulfuric acid. The acidified reaction mixture was heated to 60° C. for 15 min, after which 0.5 mL of 0.5% (W/V) creatine and 0.5 mL of 5% (W/V) napthol (freshly prepared in 2.5 N sodium hydroxide) were added. The reaction mixtures were heated for an additional 15 min at 60° C., and the absorbance was read at 525 nm. Data are expressed in terms of % control (minus Compound 1) activity and are the average of two replications. Fisher's least significant difference (LSD) value (at the 95% level of confidence) was calculated for each Compound 1 concentration to determine the significance of genotype mean differences.

ALS of Williams = test: as above; format: biochemical, soybean; settings: 10 ppm
Text: as §3, §4

ALS of W6-2 = test: as above; format: biochemical, soybean; settings: W6-2, 10 ppm
Text: as §3, §4

ALS of W6-4 = test: as above; format: biochemical, soybean; settings: W6-4, 10 ppm
Text: as §3, §4

ALS of W4-4 = test: as above; format: biochemical, soybean; settings: W4-4, 10 ppm
Text: as §3, §4

ALS of W6-1 = test: as above; format: biochemical, soybean; settings: W6-1, 10 ppm
Text: as §3, §4

ALS of W23-11 = test: as above; format: biochemical, soybean; settings: W23-11, 10 ppm
Text: as §3, §4

ALS of W20 = test: as above; format: biochemical, soybean; settings: W20, 10 ppm
Text: as §3, §4

ALS of W4-6 = test: as above; format: biochemical, soybean; settings: W4-6, 10 ppm
Text: as §3, §4

ALS of W4-5 = test: as above; format: biochemical, soybean; settings: W4-5, 10 ppm
Text: as §3, §4

Williams 82 [2] = test: Postemergence herbicide spray test of W4-4 (Table VII-A); format: in vivo, soybean; settings: two weeks after treatment
Procedure: (§5) To investigate this hypothesis, a postemergence herbicide spray test was conducted to compare the reaction of W4-4 to both W20 and wild-type Williams. The applicant was particularly interested in the resistance of W4-4 to herbicide treatments that were injurious to both Williams and W20 in a previous test (Table VII). […] Twenty-four plants each of W4-4, W20, and Williams were planted in separate 10 cm pots and allowed to grow to the second trifoliolate stage. Each pot constituted a single experimental unit receiving a single herbicide treatment. Herbicide treatments (Table VIIA) were applied as described for the first postemergence test and were replicated twice. Control plants were sprayed with the spray carrier solution only (water with 0.25% X77 surfactant). At two weeks after treatment, each plant was rated for % herbicide injury as described in Table VIII. Analysis of variance on injury ratings was performed separately for each herbicide to calculate treatment means and standard errors. Fisher's least significant difference (LSD) was used to determine the significance of line means differences at each herbicide rate using the 95% level of confidence. […]

Mutant W4-4 = test: as above; format: in vivo, soybean; settings: two weeks after treatment
Procedure: as §5

mutant W20 = test: as above; format: in vivo, soybean; settings: two weeks after treatment
Procedure: as §5

W20 = test: Field use rate test (Table VII-B); format: in vivo, soybean
W4-4 = test: Field use rate test (Table VII-B); format: in vivo, soybean
WM82 (Williams) = test: Field use rate test (Table VII-B); format: in vivo, soybean

For `CC(C)C1(C)N=C(c2nc3ccccc3cc2C(=O)O)NC1=O` (centres unmarked) [Compound 9, 2-[4,5-dihydro-4-methyl-4-(1-methylethyl)-5-oxo-1H-imidazol-2-Yl]-3-quinolinecarboxylic acid], the percent crop injury at 250 g/ha (mutant line W20; W20, 250 g/ha postemergence) was 5%, the percent crop injury at 1000 g/ha (mutant line W20; W20, 1000 g/ha postemergence) was 15% and the soybean crop injury (%) at 250 g/ha (mutant line W17; W17, 250 g/ha postemergence) was 0%. It also gave a soybean crop injury (%) at 1000 g/ha (mutant line W17; W17, 1000 g/ha postemergence) of 8%, a percent soybean crop injury at 250 g/ha (mutant line W19; W19, 250 g/ha postemergence) of 9% and a percent soybean crop injury at 1000 g/ha (mutant line W19; W19, 1000 g/ha postemergence) of 9%. The pest or weed control at 250 g/ha (Williams 82 [1]; read-out: mean % injury) was 8%, the pest or weed control at 1000 g/ha (Williams 82 [1]; read-out: mean % injury) was 13% and the mean % injury to soybean at 250 g/ha (mutant line W28; W28, 250 g/ha postemergence) was 9%. For the same compound, the mean % injury to soybean at 1000 g/ha (mutant line W28; W28, 1000 g/ha postemergence) was 15%, the % crop injury at 250 g/ha (mutant line W4; W4, 250 g/ha postemergence) was 13% and the % crop injury at 1000 g/ha (mutant line W4; W4, 1000 g/ha postemergence) was 13%. For the same compound, the percent soybean injury at 250 g/ha (mutant line W23; W23, 250 g/ha postemergence) was 9%, the percent soybean injury at 1000 g/ha (mutant line W23; W23, 1000 g/ha postemergence) was 13% and the “uninhibited ALS activity as % of control” value (ALS of W23-10) was 19.5 % of control. The “uninhibited ALS activity as % of control” value (ALS of Williams) was 14.0 % of control, the “uninhibited ALS activity as % of control” value (ALS of W6-2) was 11.7 % of control and the “uninhibited ALS activity as % of control” value (ALS of W6-4) was 18.7 % of control. For the same compound, the “uninhibited ALS activity as % of control” value (ALS of W4-4) was 44.3 % of control, the “uninhibited ALS activity as % of control” value (ALS of W6-1) was 16.2 % of control and the “uninhibited ALS activity as % of control” value (ALS of W23-11) was 13.0 % of control. The “uninhibited ALS activity as % of control” value (ALS of W20) was 18.4 % of control, the “uninhibited ALS activity as % of control” value (ALS of W4-6) was 10.7 % of control and the “uninhibited ALS activity as % of control” value (ALS of W4-5) was 19.3 % of control.
In the case of `CC(C)C1(C)N=C(c2ncccc2C(=O)O)NC1=O` (centres unmarked) [Compound 11, 2-[4,5-dihydro-4-methyl-4-(1-methylethyl)-5-oxo-1H-imidazol-2-yl]-3-pyridinecarboxylic acid, 1-methylethanamine salt], the mean % injury (Williams 82 [2]; WM82, 64 g/ha postemergence) is reported as 73%, the mean % injury (Williams 82 [2]; WM82, 125 g/ha postemergence) is reported as 83% and the mean % injury (Mutant W4-4; W4-4, 64 g/ha postemergence) is reported as 38%. It also gave a mean % injury (Mutant W4-4; W4-4, 125 g/ha postemergence) of 53%, a mean % injury (mutant W20; W20, 64 g/ha postemergence) of 48% and a mean % injury (mutant W20; W20, 125 g/ha postemergence) of 80%. For the same compound, the mean % injury (W20; W20, 8 g/ha) was 20%, the mean % injury (W20; W20, 17.5 g/ha) was 30% and the mean % injury (W20; W20, 35 g/ha) was 60%. For the same compound, the mean % injury (W4-4; W4-4, 8 g/ha) was 0%, the mean % injury (W4-4; W4-4, 17.5 g/ha) was 5% and the mean % injury (W4-4; W4-4, 35 g/ha) was 25%. For the same compound, the percent crop injury at 16 g/ha (mutant line W20; W20, 16 g/ha postemergence) was 44%, the percent crop injury at 64 g/ha (mutant line W20; W20, 64 g/ha postemergence) was 61% and the mean % injury (WM82 (Williams); WM82, 8 g/ha) was 50%. It also gave a mean % injury (WM82 (Williams); WM82, 17.5 g/ha) of 60%, a mean % injury (WM82 (Williams); WM82, 35 g/ha) of 75% and a soybean crop injury (%) at 16 g/ha (mutant line W17; W17, 16 g/ha postemergence) of 39%. The soybean crop injury (%) at 64 g/ha (mutant line W17; W17, 64 g/ha postemergence) was 61%, the percent soybean crop injury at 16 g/ha (mutant line W19; W19, 16 g/ha postemergence) was 41% and the percent soybean crop injury at 64 g/ha (mutant line W19; W19, 64 g/ha postemergence) was 60%. It also gave a soybean crop injury at 16 g/ha (Williams 82 [1]; Wm 82, 16 g/ha postemergence) of 49%, a soybean crop injury at 64 g/ha (Williams 82 [1]; Wm 82, 64 g/ha postemergence) of 75% and a mean % injury to soybean at 16 g/ha (mutant line W28; W28, 16 g/ha postemergence) of 45%. The mean % injury to soybean at 64 g/ha (mutant line W28; W28, 64 g/ha postemergence) was 68%, the % crop injury at 16 g/ha (mutant line W4; W4, 16 g/ha postemergence) was 39% and the % crop injury at 64 g/ha (mutant line W4; W4, 64 g/ha postemergence) was 73%. For the same compound, the percent soybean injury at 16 g/ha (mutant line W23; W23, 16 g/ha postemergence) was 41% and the percent soybean injury at 64 g/ha (mutant line W23; W23, 64 g/ha postemergence) was 74%.
